Here are results for four compounds from patent US6395255B1, “Radiolabeled vasoactive intestinal peptide analogs for imaging and therapy” (Thomas Jefferson University, priority 1998, dated 2002).

The tissue uptake is the percentage of the injected dose found per gram of tissue.

“Also recorded” adds a separate entry of the source. Square brackets hold non-standard residues; d marks the D form. Ends that are not written are not given here. Peptide text beside a SMILES is read from it. GABA = NCCCC(=O)O

Series [1] concerns LS174T human colorectal tumor. Kind of series: Tissue distribution and gamma camera imaging in nude mice bearing LS174T tumors. The following applies: for delineation of tumor in gamma camera image: nude mice bearing LS174T tumor in right thigh, 24 h after injection.
Procedure: Tissue Distribution Studies
(§1) The ability of ^99MTc-TP3654 to detect human colorectal carcinoma was examined in nude mice.
(§2) Human colorectal cancer cells LS 174T (ATCC) were grown in culture and 5×10^6 viable cells were implanted intramuscularly in the right thighs of athymic NCr nude mice that weighed 20-25 g. Tumors were grown to no more than 1 cm in diameter. Each animal received approximately 700 Ci of ^99mTc-TP3654 (1450 Ci/mrnol) in 200 1, of saline through a lateral tail vein. Exact activity injected was determined by measuring the syringe, before and after injection, in a calibrated ionization chamber (Capintech, Ramsey, N.J.). A suitable standard of ^99mTc was prepared at the time of injection.
(§3) At 4 or 24 h later, animals were killed and imaged using a GE STARCAM gamma camera (Milwaukee, Wis.) equipped with a low-energy parallel-hole collimator and a dedicated computer. Tissues were dissected and weighed, and associated radioactivity was counted (Packard 5000 series gamma counter), along with a standard, in duplicate. Results were calculated as percentage injected dose per gram of tissue (% ID/g) and were analyzed by using Student t test.
(§4) A tissue distribution study was performed in a manner similar to that for ^99mTc-TP3654.
(§5) For animal tissue distribution studies, a protocol similar to that for ^99mTc-TP3654 was followed.
Test in series [2]: as above
The conditions noted are these: athymic NCr nude, mouse, iv, total radioactivity, 24 h postinjection, mean ± SD, n = 5; for tissue uptake at 24 h: Biodistribution.
Procedure: Tissue Distribution Studies
as §1, §2, §3, §4, §5

A short description of series [3]: in vivo. The conditions noted are these: athymic NCr nude, mouse, iv, total radioactivity; for tissue uptake at 4 h / tissue uptake at 24 h: Biodistribution.
Procedure: Tissue Distribution Studies
as §1, §2, §3, §4, §5
Series [4] concerns VIP receptor. The series is described as follows: Receptor blocking with unlabeled VIP-28 or TP3654 in LS174T tumor-bearing nude mice. The conditions noted are these: 50 μg unlabeled peptide intravenously 30 min before tracer, 24 h, vs not pretreated mice. The format is in vivo. The protocol:
Receptor Blocking […] Mice were killed 24 h later, and percentage injected dose per gram of tissues was determined. Data were compared to 24 h distribution in mice (n=5) given 700 μCi ^99mTc-TP3654 but not pretreated with unlabeled VIP or TP3654.

The format of series [5] is physicochemical. The protocol:
Stability of ^99mTc-TP3654 To measure the in vitro stability of ^99mTc-TP3654, a known quantity of the preparation was incubated at 37° C. for 24 h, with 100 molar excess of DTPA, HSA or cysteine. At 0, 5 and 24 h, samples were withdrawn for HPLC analysis and the radioactivity that was associated with the challenging agent and that remained as ^99mTc-TP3654 (Rt=11.8 min) was measured.

Series [6] has as its system LS174T human colorectal tumor. The following applies: athymic NCr nude, mouse, in vivo, iv, 24 h.
Procedure: Tissue Distribution Studies
as §1, §2, §3, §4, §5
A short description of series [7]: in vivo. The conditions noted are these: rat, total radioactivity.
Details of series [8]: species or system Sprague-Dawley rats. The following applies: Sprague-Dawley, rat, in vivo, iv. The protocol: Blood Clearance in Rats Three Sprague-Dawley rats, each weighing approximately 250 g, were injected through a lateral tail vein with 1 mCi ^99mTcTP3654 and serial blood samples were drawn, in triplicate, through the other lateral tail vein at 1, 5, 10, 15 and 30 min and then at 1, 2, 4, 6, 18 and 24 h. Blood samples were weighed, radioactivity was counted with a standard ^99mTc solution prepared at the time of injection and the percentage injected dose per gram of blood was plotted as a function of time.

Series [9] relates to internal anal sphincter (IAS) smooth muscle. The series is described as follows: Functional assay using opossum internal anal sphincter smooth muscle strips (fall in resting tension). The conditions noted are these: at 10^−6 mol/L; 100% = maximal relaxation with 5 mmol/L EDTA. It is filed as tissue-based, opossums (Didelphis virginiana).
The subject of series [10] is colonic adenocarcinoma. The conditions noted are these: cited from earlier work.

Take `C[C@@H](NC(=O)CN)C(=O)NCC(=O)NCC(=O)NCCCC(=O)O` [^99mTc-G(D)AGG-Aba, metal not drawn] (H-G[dA]GG[GABA]-OH; N-terminus and C-terminus assumed): the “Biodistribution, Kidney” value in [1] (kidney, 24 h postinjection, nude mice bearing LS174T tumors, mean ± SD, n = 5) worked out at 0.2±0.02 % ID/g. Moreover, the “delineation of tumor in gamma camera image” value in [1] is reported as “not delineated”; in [1] (listed as 99mTc-G(D)AGG), “not”. For the same compound, the tissue uptake at 24 h was found to be 0.03 %ID/g in [2] (blood, nude mice bearing LS174T tumors); 0.01 %ID/g in series [2] (heart, nude mice bearing LS174T tumors); 0.2 ± 0.02 %ID/g in [2] (kidney, nude mice bearing LS174T tumors); 0.16 ± 0.02 %ID/g in series [2] (liver, nude mice bearing LS174T tumors); 0.03 %ID/g in series [2] (lung, nude mice bearing LS174T tumors); 0.01 %ID/g in series [2] (muscle, nude mice bearing LS174T tumors). Moreover, the tissue uptake at 24 h in series [2] (small intestine, nude mice bearing LS174T tumors) was found to be 0.03 ± 0.01 %ID/g; in series [2] (spleen, nude mice bearing LS174T tumors), 0.06 ± 0.03 %ID/g; in series [2] (tumor, LS174T tumor, nude mice), 0.03 %ID/g. Also, the tissue to tissue ratio at 24 h stood at 0.77 ± 0.03 in [2] (tumor/blood, T/B ratio (tumor-to-blood), nude mice bearing LS174T tumors) and 1.88 ± 0.36 in [2] (tumor/muscle, T/M ratio (tumor-to-muscle), nude mice bearing LS174T tumors).

Consider `CC[C@H](C)[C@H](NC(=O)[C@H](CO)NC(=O)[C@H](CC(N)=O)NC(=O)[C@H](CC(C)C)NC(=O)[C@H](Cc1ccc(O)cc1)NC(=O)[C@H](CCCCN)NC(=O)[C@H](CCCCN)NC(=O)[C@@H](NC(=O)[C@H](C)NC(=O)[C@H](CCSC)NC(=O)[C@H](CCC(N)=O)NC(=O)[C@H](CCCCN)NC(=O)[C@H](CCCNC(=N)N)NC(=O)[C@H](CC(C)C)NC(=O)[C@H](CCCNC(=N)N)NC(=O)[C@@H](NC(=O)[C@H](Cc1ccc(O)cc1)NC(=O)[C@H](CC(N)=O)NC(=O)[C@H](CC(=O)O)NC(=O)[C@@H](NC(=O)[C@H](Cc1ccccc1)NC(=O)[C@@H](NC(=O)[C@H](C)NC(=O)[C@H](CC(=O)O)NC(=O)[C@H](CO)NC(=O)[C@@H](N)Cc1c[nH]cn1)C(C)C)[C@@H](C)O)[C@@H](C)O)C(C)C)C(=O)N[C@@H](CC(C)C)C(=O)N[C@@H](CC(N)=O)C(=O)NCCCC(=O)NCC(=O)NCC(=O)N[C@H](C)C(=O)NCC(=O)O` [^99mTc-TP3654, metal not drawn], for which the tissue uptake at 4 h in series [3] (Blood) was 0.21 ± 0.02 %ID/g; in [3] (Heart), 0.1 %ID/g; in series [3] (Kidney), 19 ± 3.75 %ID/g; in [3] (Liver), 1.12 ± 0.08 %ID/g; in series [3] (Lung) it was 0.17 ± 0.01 %ID/g; in series [3] (Muscle) it was 0.09 ± 0.01 %ID/g. Also, the tissue uptake at 4 h in series [3] (Small intestine) is 0.18 ± 0.05 %ID/g; in [3] (Spleen) it was 0.19 ± 0.05 %ID/g; in series [3] (Tumor) it was 0.24 ± 0.06 %ID/g; in series [7], 0.73 ± 0.12 %ID/g. Further, the tissue uptake at 24 h came out at 0.12 ± 0.02 %ID/g in series [3] (Blood); 0.06 ± 0.01 %ID/g in series [3] (Heart); 3.52 ± 0.4 %ID/g in series [3] (Kidney); 0.33 ± 0.04 %ID/g in series [3] (Liver); 0.16 ± 0.09 %ID/g in [3] (Lung); 0.04 ± 0.01 %ID/g in series [3] (Muscle). Further, the tissue uptake at 24 h was found to be 0.05 ± 0.01 %ID/g in series [3] (Small intestine), 0.11 ± 0.02 %ID/g in [3] (Spleen) and 0.2 %ID/g in [3] (Tumor). In addition, the tissue to tissue ratio at 4 h worked out at 1.16 ± 0.29 in [3] (T/B ratio (tumor-to-blood)) and 2.73 ± 1.09 in [3] (T/M ratio (tumor-to-muscle)). Moreover, the tissue to tissue ratio at 24 h in series [3] (T/B ratio (tumor-to-blood)) worked out at 1.98 ± 1.44; in [3] (T/M ratio (tumor-to-muscle)), 6.28 ± 3.09. The “uptake of ^99mTc-TP3654 after pretreatment with unlabeled TP3654 or VIP” value in [4] is listed as “decreased in all VIP receptor-rich tissues except the kidneys”. Further, in [5], the “stability on storage (HPLC)” value is given as “stable for up to 24 h”. In addition, the “radioactivity displaced by challenge with 100 molar excess of DTPA, HSA or cysteine” value in series [5] (24 h of incubation at 37° C.) is listed as “approximately 11%”. For the same compound, in [1], the “delineation of tumor in gamma camera image” value is “delineates the tumor and both kidneys; also recorded: clearly delineated”. The “Biodistribution, Tumor” value in [6] was 0.23 ± 0.13 % ID/g. For the same compound, the “blood clearance α-t 1/2” value in [8] is listed as “approximately 5 min”. The “blood clearance β-t½” value in series [8] is given as “approximately 120 min”.

With “CPTA-VIP: VIP conjugated with the chelating agent CPTA, [4-(1,4,8,11-tetraazacyclotetradec-1-yl)methyl] benzoic acid (HSDAVFTDNYTRLRKQMAVKKYLNSILN; ends and bridges not checked; also: conjugated with chelator CPTA, position not given here; UniProt P01282 125-152, looked up)”, in series [9], the “muscle relaxivity (fall in resting IAS tension)” value is recorded as 35%.

With “I-123 labeled VIP: I-123 labeled vasoactive intestinal peptide (VIP)”, the “positive scans in patients with colonic adenocarcinoma” value in series [10] (17 patients) is reported as 17 out of 17. In series [10] (human, in vivo), the lung uptake entry is listed as “approximately 25%”. For the same compound, in series [10] (patients), the “effectiveness in imaging colorectal adenocarcinoma” value is listed as 100%, the “effectiveness in imaging in patients with liver metastases” value was 83% and the “imaging of lung metastases” value was 66%.
